Each compound was assayed against T1, human renin (Homo sapiens, UniProt P00797) (assay: In vitro test with pure human renin). Conditions: human tetradecapeptide renin substrate (hTD), pH 7.4, incubated three hours at 37° C. or 4° C., angiotensin I via RIA.
T1 sequence (P00797 67-406): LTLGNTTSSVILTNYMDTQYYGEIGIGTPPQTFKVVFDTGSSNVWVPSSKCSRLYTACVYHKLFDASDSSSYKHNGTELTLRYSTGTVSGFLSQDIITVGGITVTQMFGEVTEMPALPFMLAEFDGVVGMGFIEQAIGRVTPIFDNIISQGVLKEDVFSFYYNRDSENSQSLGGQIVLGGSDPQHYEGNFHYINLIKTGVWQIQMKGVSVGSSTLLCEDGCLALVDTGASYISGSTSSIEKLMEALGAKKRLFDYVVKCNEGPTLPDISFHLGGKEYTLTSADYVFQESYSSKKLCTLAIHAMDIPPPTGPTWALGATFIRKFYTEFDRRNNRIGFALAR
Format: biochemical
Experimental: In Vitro Test with Pure Human Renin
The test is carried out in Eppendorf test tubes. The incubation mixture consists of (1) 100 μl of human renin in buffer A (0.1M sodium phosphate solution, pH 7.4, 0.1% bovine serum albumin, 0.1% sodium azide and 1 mM ethylenediaminetetraacetic acid), sufficient for a renin activity of 2-3 ng of angiotensin I/ml/hr.; (2) 145 μl of buffer A; (3) 30 μl of 10 μm human tetradecapeptide renin substrate (hTD) in 10 mM hydrochloric acid; (4) 15 μl of dimethyl sulfoxide with or without inhibitor and (5) 10 μl of a 0.03 molar solution of hydroxy- quinoline sulfate in water.
The samples are incubated for three hours at 37° C. or 4° C. in triplicate. 2×100 μl samples per experimental test tube are used in order to measure the production of angiotensin I via RIA (standard radioimmunoassay; clinincal assay solid phase kit). Cross reactivities of the antibody used in the RIA are: angiotensin I 100%; angiotensin II 0.0013%; hTD (angiotensin I-Val-Ile-His-Ser-OH) 0.09%. The production of angiotensin I is determined by the difference between the experiment at 37° C. and that at 4° C.
The following controls are carried out:
(a) Incubation of hTD samples without renin and without inhibitor at 37° C. and 4° C. The difference between these two values gives the base value of angiotensin I production.
(b) Incubation of hTD samples with renin, but without inhibitor at 37° C. and 4° C. The difference between these values gives the maximal value of angiotensin I production.
In each sample the base value of angiotensin I production is substracted from the angiotensin I production which is determined. The difference between the maximal value and the base value gives the value of the maximal substrate hydrolysis (=100%) by renin.
The results are given as IC50 values which denote that concentration of the inhibitor at which the enzymatic activity is inhibited by 50%. The IC50 values are determined from a linear regression curve from a logit-log plot.
Work on `CC(C)(C)C(=O)C[C@@H](Cc1ccccc1)C(=O)N[C@@H](Cc1c[nH]cn1)C(=O)N[C@@H](CC1CCCCC1)[C@@H](O)CN1CCCCC1=O` [A, (S)-N-[(1S,2S)-1-(Cyclohexylmethyl)-2-hydroxy-3-(2oxopiperidino)propyl]-α-[(R)-α-(3,3-dimethyl-2-oxobutyl)hydrocinnamamido]imidazole-4-propionamide] yielded an IC50 of 41 nM.
In the case of `CN(C[C@H](O)[C@H](CC1CCCCC1)NC(=O)[C@H](Cc1c[nH]cn1)NC(=O)[C@@H](CC(=O)C(C)(C)C)Cc1ccccc1)C(=O)[C@H](Cc1c[nH]cn1)NC(=O)[C@@H](CC(=O)C(C)(C)C)Cc1ccccc1` [C], the IC50 is reported as 28 nM.
In the case of `CN(C[C@H](O)[C@H](CC1CCCCC1)NC(=O)[C@H](Cc1c[nH]cn1)NC(=O)[C@@H](CC(=O)C(C)(C)C)Cc1ccccc1)C(=O)[C@H](Cc1c[nH]cn1)NC(=O)CCc1ccccc1` [D, (S)-N-[(1S,2S)-1-(Cyclohexylmethyl)-2-hydroxy-3-[(S)-3-(imidazol-4-yl)-2-hydrocinnamamido-N-methylpropionamido]propyl]-α-[(R)-α-(3,3-dimethyl-2-oxobutyl)hydrocinnamamido]imidazole-4-propionamide], the IC50 is reported as 19 nM.
In the case of `CN(C[C@H](O)[C@H](CC1CCCCC1)NC(=O)[C@H](Cc1c[nH]cn1)NC(=O)[C@H](Cc1ccccc1)NC(=O)OC(C)(C)C)C(=O)[C@H](Cc1c[nH]cn1)NC(=O)[C@H](Cc1ccccc1)NC(=O)OC(C)(C)C` [E], the IC50 is reported as 30 nM.
In the case of `CN(C[C@H](O)[C@H](CC1CCCCC1)NC(=O)[C@H](Cc1c[nH]cn1)NC(=O)[C@H](Cc1ccccc1)NC(=O)OC(C)(C)C)C(=O)[C@H](Cc1ccccc1)NC(=O)OC(C)(C)C` [F, t-Butyl [(S)-α-[[(2S,3S)-3-[(S)-2-[(S)-α-(1-t-butoxyformamido)hydrocinnamamido]-3-imidazol-4-ylpropionamido]-4-cyclohexyl-2-hydroxybutyl]methylcarbamoyl]phenethyl]carbamate], the IC50 is reported as 15 nM.
`CC(C)(C)C(=O)C[C@@H](Cc1ccccc1)C(=O)N[C@@H](Cc1c[nH]cn1)C(=O)N[C@@H](CC1CCCCC1)[C@@H](O)CN1C(=O)c2ccccc2C1=O` [G, (S)-N-[(1S,2S)-1-(Cyclohexylmethyl)-2-hydroxy-3-phthalimidopropyl]-α-[(R)-α-(3,3-dimethyl-2-oxobutyl)hydrocinnamamido]imidazole-4-propionamide] was tested, and the IC50 was 20 nM.
With “(S)-N-[(1S,2S)-1-(Cyclohexylmethyl)-3-[(S)-α-[(R)-α-(3,3-dimethyl-2-oxobutyl)hydrocinnamamido]-N-isopropylimidazol-4-propionamido]-2-hydroxypropyl]-α-[(R)-α-(3,3-dimethyl-2-oxobutyl)hydrocinnamamido]imidazole-4-propionamide” the IC50 was 41 nM.
